{"source": "BindingDB's records for doi:10.1021/jm00045a012", "about": "(Dupont Pharmaceuticals, 1994)", "target": "Stromelysin-1 (MMP-3) (Homo sapiens) (UniProt P08254)", "sequence (P08254 whole entry, looked up)": "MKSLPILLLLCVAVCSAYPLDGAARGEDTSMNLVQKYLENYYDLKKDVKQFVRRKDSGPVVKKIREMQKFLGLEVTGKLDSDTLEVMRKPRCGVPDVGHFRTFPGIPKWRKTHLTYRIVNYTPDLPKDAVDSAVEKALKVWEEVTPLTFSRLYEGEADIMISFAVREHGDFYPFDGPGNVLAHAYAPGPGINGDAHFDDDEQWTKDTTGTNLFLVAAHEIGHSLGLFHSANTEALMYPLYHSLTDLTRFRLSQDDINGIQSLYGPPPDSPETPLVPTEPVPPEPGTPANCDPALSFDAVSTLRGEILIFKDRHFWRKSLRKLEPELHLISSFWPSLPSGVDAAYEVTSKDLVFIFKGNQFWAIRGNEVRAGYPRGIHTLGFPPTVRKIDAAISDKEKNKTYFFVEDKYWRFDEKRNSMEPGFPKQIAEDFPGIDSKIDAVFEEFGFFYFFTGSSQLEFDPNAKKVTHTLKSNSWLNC", "experiment": "Tested for the inhibition of prostromelysin activation with no preincubation period", "data": [{"molecule": "COc1ccc(OC)c(-n2sc3ncccc3c2=O)c1", "note": "[2-(2,5-Dimethoxy-phenyl)-isothiazolo[5,4-b]pyridin-3-one]", "values": [{"measurement": "IC50", "result": 53, "unit": "µM"}]}, {"molecule": "COc1ccc(-n2sc3ncccc3c2=O)c(OC)c1", "note": "[2-(2,4-Dimethoxy-phenyl)-isothiazolo[5,4-b]pyridin-3-one]", "values": [{"measurement": "IC50", "result": 62, "unit": "µM"}]}]}
